{"source": "patent US12285459B2", "about": "“Saposin-A derived peptides and uses thereof” (CHILDREN'S MEDICAL CENTER CORPORATION, priority 2011, dated 2025)", "key": {"[1]": {"system": "Tsp-1 and p53 expression in lungs", "test": "Tumor-free mice given PC3M-LN4 conditioned media plus peptide; Tsp-1/p53 in tissue by western blot", "type": "in vivo, C57Bl6 mice", "details": "PC3M-LN4 CM in combination with peptide; Western blot, FIG. 3", "description": "For tumor-free analysis C57Bl6 mice were treated with 200 uL of PC3M-LN4 media alone or in combination with peptides described above at dose of 30 mg/kg/day for 5 days. After treatment the animals were sacrificed and the lungs were harvested, lysed and analyzed for Tsp-1 and p53 protein levels as described previously (Kang et al).\nIt was sought to determine whether there was a smaller domain within saposin A that contained the p53/Tsp-1 stimulating activity. […] C57Bl6 mice (5-6 wks old) were injected daily with 300 uL of serum free DMEM, conditioned media (CM) from non-metastatic PC3 cells, CM from metastatic PC3M-LN4 cells and PC3M-LN4 CM plus 30 mg/kg of the pegylated 6 amino acid polypeptide (PEG2000-CDWLPK (SEQ ID NO: 46)) or 30 mg/kg of the pegylated 18 amino acid polypeptide (PEG2000-[…] (SEQ ID NO: 47)). After 9 days the mice were euthanized and the lungs and livers harvested and either fixed in formalin or lysed for Western blot analysis.\nFinally, the effect of substituting D-amino acids at different residues of the 4-amino acid peptide was analyzed. By Western blot analysis it was observed that substituting the first and third or second and fourth residues, in combination, had no effect on the Tsp-1 stimulating activity in vitro. These peptides were then tested in the tumor-free animal model described above. The normal 4-amino acid peptide and the D-amino acid substituted peptides were injected in combination with conditioned media from PC3M-LN4 cells in adult C57Bl6 mice for 4 days at a dose of 10 or 30 mg/kg/day via i.p. injection. Mice were sacrificed 24 hours after the treatment on day 4. The lungs of these mice were harvested and analyzed the Tsp-1 expression by Western blot analysis. […]\nMethods: 18 C57Bl6 mice were injected with Ac-dWlP-amide (SEQ ID NO: 132) at a dose of 30 mg/kg in a volume of 100 μL via intraperitoneal (i.p) injections in serum starved conditioned media from PC3M-LN4 prostate cancer cells. […] The relative intensity of the Tsp-1 (normalized to β-Actin) bands were determined using a Bio-Rad Chemi-Doc XRS system."}, "[2]": {"system": "Lewis Lung Carcinoma cells", "test": "Lewis Lung Carcinoma tail vein lung metastasis model, bioluminescence", "type": "in vivo, C57Bl6 mice", "description": "C57Bl6 mice were injected with 1×10^6 Lewis Lung Carcinoma cells via tail vein. After 10 days the animals were treated with either PBS or a peptide corresponding to residues 36-40 of saposin A at a dose of 30 mg/kg/day via i.p. injection. After 16 days of treatment all animals were sacrificed, lungs were weighed and harvested. Tissues were either fixed in NBF, or lysed and analyzed for Tsp-1 and p53 expression by western blot analysis.\n1×10^6 luciferase-expressing LLC cells were then injected via tail vein into C57Bl6 mice. After 5 days the mice were treated with the 5-amino acid peptide at a dose of 30 mg/kg/day via i.p. injection. After 29 days the animals were sacrificed, at which point the average luciferase activity in the peptide treated mice, as measured by a Xeongoen IVIS system, was 2% that of the luciferase activity in mice treated with a scrambled peptide (FIG. 8).\nFor experimental metastasis, 7-week old C57BL/6 mice were injected via tail vein with 1×10^5 luciferase-labeled LLC cells. Metastatic growth was monitored over time using bioluminescence imaging performed with mice in a supine position 5 min after D-luciferin injection with a Xenogen IVIS system coupled to Living Image acquisition and analysis software (Xenogen). For BLI plots, photon flux was calculated for each mouse by using the same circular region of interest encompassing the thorax of the mouse."}}, "data": [{"substance": "DWLPK [5-amino acid peptide corresponding to residues 36-40 of saposin A]", "values": [{"measurement": "Tsp-1 and p53 expression in the lungs above basal levels", "setting": "[1]", "result": 6, "unit": "fold"}, {"measurement": "average luciferase activity relative to mice treated with a scrambled peptide", "setting": "[2]; 30 mg/kg/day i.p. from day 5, after 29 days, IVIS", "result": 2, "unit": "%"}, {"measurement": "lung metastases by bioluminescence imaging", "setting": "[2]; LLC-luc cells via tail vein, compared to scrambled peptide", "result": "dramatically reduced lung metastases"}]}]}
